Source: publication PMC4832822, “Investigating the Influence of (Deoxy)fluorination on the Lipophilicity of Non‐UV‐Active Fluorinated Alkanols and Carbohydrates by a New log P Determination Method” (Angewandte Chemie (International Ed. in English), 2015)
Where “and” joins values, the source holds several entries; their conditions need not be identical. Identical values can stand only once. Like-named read-outs stand apart in the source and are kept apart here.

How the values were obtained:
[1] = cited from earlier work
[2] = milogP calculated using Molinspiration Cheminformatics; settings: Table SI14
[3] = log P determination by 19F NMR shake-flask method with internal fluorinated reference (octanol/water); settings: for ΔlogP (exp. logP vs logP lit): Table SI12
[4] = octanol/water, Average logP, 25 °C, reference TFE (+0.36)
[5] = octanol/water, error (mean logP to three decimals), reference TFE (+0.36)
[6] = octanol/water, logP, 19F NMR, 25 °C, average value
[7] = octanol/water, logP, single experiment, reference TFE (+0.36)

SMILES	ΔlogP (milogP vs logP exp) [2]	Average logP ([3]; 25 °C, reference TFE (+0.36))	ΔlogP (exp. logP vs logP lit) [3]	logP [3, 4]	logP [3, 5]	logP [3, 6]	logP [3, 7]	other results
OCC(F)(F)C(F)(F)F [compound 13, CF3CF2CH2OH]	+0.05	+1.20	-0.03	1.2	1.2	1.2	1.2	logP (lit) ([1]; ref chemidplus database, Hansch, Leo 1979 and Leo, Elkins, Chem. Rev. 1971): 1.23; logP ([3]; octanol/water, average logP, mA 2.0 mg, mREF 0.8 mg, reference CF3CH2OH): 1.2; logP ([3]; octanol/water, average logP, mA 10.0 mg, mREF 4.0 mg): 1.2; logP ([3]; octanol/water, average logP, mA 70.0 mg, mREF 30.0/70.0 mg): 1.18; logP ([3]; octanol/water, average logP, mA 120.0 mg, mREF 60.0 mg): 1.18; logP ([3]; octanol/water, logP, single experiment, mA 2.0 mg, mREF 0.8 mg, reference CF3CH2OH): 1.2; logP ([3]; octanol/water, logP, single experiment, mA 10.0 mg, mREF 4.0 mg): 1.2; logP ([3]; octanol/water, logP, single experiment, mA 70.0 mg, mREF 30.0/70.0 mg): 1.18; logP ([3]; octanol/water, logP, single experiment, mA 120.0 mg, mREF 60.0 mg): 1.17; mean logP ([3]; reference TFE (+0.36)): 1.200; logP ([3]; single experiment, mA 2.0 mg, mREF 0.8 mg, reference CF3CH2OH): 1.200; logP ([3]; single experiment, mA 10.0 mg, mREF 4.0 mg): 1.200 and 1.195; logP ([3]; single experiment, mA 70.0 mg, mREF 30.0/70.0 mg): 1.179; logP ([3]; single experiment, mA 120.0 mg, mREF 60.0 mg): 1.178 and 1.174; logP ([3]; single experiment, reference TFE (+0.36)): +1.200 and +1.199
OCCCC(F)(F)F [compound 23, 4,4,4-trifluoro-1-butanol]	+0.24	+0.91	+0.01	0.91	0.91	0.91	0.918	logP (lit) ([1]; ref chemidplus database and N. Muller 1986): +0.90; logP ([3]; octanol/water, 19F NMR, 25 °C, average value): +0.91
OCCCCC(F)(F)F [compound 35]	+0.43	+1.22	+0.07	1.22	1.22	1.22	1.22	logP (lit) ([1]; shake-flask, 1H or 19F NMR, temperature not reported, ref N. Muller, J. Pharm. Sci. 1986): +1.15
